In patent US8022178B2, “Modified self-assembling peptides” (Massachusetts Institute of Technology, priority 2006, dated 2011):
Entries after “also recorded” stand apart in the source; their conditions may differ.

Assays:
[1] = system: HUVEC (human umbilical vein endothelial cells); assay: HUVEC culture on bFGF loaded peptide matrix; type: cell-based; conditions: Day 3; bFGF loaded matrix compared to negative and positive control; FIG. 21; listed as RAD-2P
Experimental: The effect of protein retention and delivery using the self-assembling peptide were studied (Table 11). bFGF was used as a model protein. The retention of bFGF in different peptide matrix in different charge condition was measured by ELISA after washing by PBS. After washing out unbound bFGF, the effect of protein retention to self-assembling peptide matrix were evaluated the using cell culturing of HUVEC (human umbilical vein endothelial cells).
The peptide solutions provided in Table 12 were loaded in the culture inserts (10 mm diameter, Millicell-CM, Millipore) and gels were formed using PBS. After gelation, bFGF solution in PBS was added inside and outside and plated for overnight. bFGF was loaded at 175 ng/insert. After loading bFGF, the PBS inside and outside the inserts were exchanged three times (2 hours, 9 hours and 12 hours) to remove unbound bFGF (Washing). […]
Cell culturing using cell culture medium (EGM-2-MV) was used without attached growth factor on peptide matrix as negative control. […] The bFGF concentration in washing buffer (PBS) and cell culture medium (EGM-2-MV) was measured using ELISA. […] Growth factor retention rate was calculated by accumulating the amount of measured bFGF. […]

[2] = system: adipose derived stem cells (ADSC); assay: Growth factors secreted by ADSC into the culture medium (ELISA); type: cell-based, human; conditions: from 1 day up to 7 days of culture, control tissue culture plate, FIG. 35
Experimental: The peptide solutions shown in Table 25 were loaded in the culture inserts (10 mm diameter, Millicell-CM, Millipore) and gels were formed using cell culture medium (DMEM-F12+10% FBS, Gibco). ADSC were plated at 4×10^4 cells on the inserts and cultured up to 7 Days.
The growth factors secreted into the culture medium were also evaluated using ELISA method (FIGS. 35A-35B). The growth factors secreted from stem cell are considered to be main source of the cell therapy by reducing apotosis and increasing angiogenesis. Especially HGF and VEGF are considered to key components for reducing apotosis and increasing angiogenesis. The medium of ADSC cultured on tissue culture plate was used as control (shown as TCP). […] For VEGF, all peptide matrix had increase of VEGF secretion in 1 day culture medium.

Liver progenitor cells = conditions: encapsulated liver progenitor cells (Semino 2003); cited from earlier work
[3] = system: Mouse preosteoblast cell line (MC3T3-E1); assay: Alkaline phosphatase (ALP) activity of MC3T3-E1 on hydrogels; type: cell-based; conditions: 1% FHR hydrogel; FIGS. 14-16A/B compared to FIGS. 3-4
Experimental: Mouse preosteoblast cell line (MC3T3-E1) was used to compare the proliferation and differentiation effects of the motifs with RAD16-1 and Collagen-I hydrogels as controls. The proliferation was measured by DNA contents and the differentiation effects were evaluated using Alkaline phosphatase (ALP) activity and secreted Osteocalcin. Alkaline phosphatase is known to be differentiation marker of osteoblast in earlier stage. Secreted Osteocalcin is known to be differentiation marker of osteoblast in later stage and its activity is correlated with the bone mineralization.
1% RAD16-I solution [self-assembling peptide solution] was obtained as RAD16-I (Puramatrix™, 3DM Inc./BD Bioscience). The functionalized peptides of Table 2 were dissolved in water at final concentration of 1% (v/w). The functionalized peptide solutions were then mixed with 1% RAD16-I solution at a ratio of 1:1 (Table 4). Each peptide solution was loaded in the Culture plate inserts (10 mm diameter, Millicell-CM, Millipore). […]
Cell proliferation was evaluated using DNA contents in the hydrogel using PicoGreen dsDNA Kits (Molecular Probes). ALP activity was quantitatively measured from cell lysis using Alkaline Phosphatase Fluorescence Assay Kit (Sigma). Osteocalcin was measured from cell culture medium using Mouse Osteocalcin EIA Kit (Biomedical Technologies Inc.).

MC3T3-E1 cells = assay: Three dimensional culturing of MC3T3-E1 in hydrogel (Calcein AM, confocal); type: cell-based, mouse; conditions: 14 days of culture; compared to RAD16-1; FIGS. 13A-13D
Experimental: Three dimensional culturing experiment. MC3T3-E1 cells were obtained and grown to be seeded using the same protocol as described in Example 1. Cells were centrifuged and re-suspended into sucrose solution (10%) at 4×10^6 cells/ml. FHR peptide was dissolved into water to provide a 1.0% w/t solution. 1% RAD16-I solution was obtained as RAD16-I (Puramatrix™, 3DM Inc./BD Bioscience). The pH of the FHR peptide solution was adjusted to pH 5.7 by NaOH solution (i.e., so that cells can be mixed near neutral pH). The cell suspension and the peptide solution (FHR/RAD16-I) were mixed in a ratio of 1:5. The mixed solution were placed in the inserts and the cell culture medium was added to the insert to form the hydrogel. The cells were maintained by the maintenance medium (as described herein).
Fluorescence observation of the cells. After 14 days of culture, the inserts were washed by PBS and then stained by Calcein AM solution (4 uM, Invitrogen). This solution stains the live cells by the green fluorescence when excited by 480 nm light.
The RAD16-1 and FHR hydrogels in the insert was observed by confocal microscope. […] The bright areas show the cells presence. […] The quantitative measurement of proliferation and differentiation effects by the FHR peptide hydrogel were also evaluated (FIGS. 14-16A/B). […]

For Ac(RADA)4-CONH2, the “cell attachment and cell spread” value [1] is listed as “superior; also recorded: dominant effect”, the “HGF secreted into the culture medium” value [2] is listed as “significant increase” and the hepatocyte marker expression (Liver progenitor cells) is listed as “expressed markers indicative of hepatocyte phenotype”.
In the case of “Ac(RADA)4GGFHRRIKA-CONH2 (Ac-RADARADARADARADAGGFHRRIKA-NH2) [FHR = 1% solution; FHR-2P = 2% solution]”, the “promotion of pre-osteoblast differentiation” value [3] is reported as “some function to promote differentiation” and the 3-Dimensional cell proliferation (MC3T3-E1 cells) is reported as “superior”.
